According to US7022315B2, “Administration of a thiol-based chemoprotectant compound” (Oregon Health & Science University, priority 2000, dated 2006):
Values after ≈ are worked out from the molar mass of the structure shown. Like-named read-outs stand apart in the source and are kept apart here.

Key:
rats = test: Protection against chemotherapy-induced myelosuppression, nadir blood counts; type: in vivo, rat; conditions: STS alone; data not shown
Experimental: FIGS. 10A–10D show the results of tests on chemoprotection for chemotherapy-induced myelosuppression. Rats received tri-drug chemotherapy (Carboplatin 200 mg/m2, etoposide phosphate 100 mg/m2, melphalan 10 mg/m2), with (triangles, squares) or without (circles) chemoprotection. Blood counts were determined prior to chemotherapy, at the blood nadir (6 days), and in the recovery phase (9 days after treatment). Chemoprotection was with NAC (1200 mg/kg) administered via aortic infusion 30 min prior to chemotherapy (triangles) or NAC prior to chemotherapy and STS (8 g/m2) immediately after chemotherapy (squares). In FIG. 10B and FIG. 10D animals received BSO (10 mg/kg i.p.×3 d) prior to treatment with chemotherapy. […] Significant difference from the no protectant groups were determined by Wilcoxon/Kruskal-Walliis rank sums tests (*p<0.05, **p<0.01).
Chemoprotection against chemotherapy-induced bone marrow toxicity was determined in BSO treated and untreated animals given i.a. carboplatin, etoposide phosphate, and melphalan. NAC with or without STS was administered either about 30 minutes prior to chemotherapy or immediately after chemotherapy, and was administered either i.v. or by aortic infusion.

[1] = cited from earlier work
LX-1 SCLC cells [2] = test: cells; conditions: for EC50 / Chemoprotective agent EC50: average ± pooled sd of two experiments
Experimental: Cytotoxicity was assessed in cultured LX-1 SCLC cells, 1×10^4 cells per well in 96 well plates, using the WST colorometric assay. […] Chemoprotectant was added at the indicated concentration of N-acetylcysteine shown in FIG. 3A or D-methionine shown in FIG. 3B either alone (n) or immediately following chemotherapy. Data are expressed as the percentage of live cells compared to untreated control samples (without chemotherapy) and each point represents the mean±standard deviation of 4 wells.
The dose/response for rescue from chemotherapy cytotoxicity was evaluated for four different small molecular weight sulfur containing chemoprotectants.
Chemotherapy agents were fixed at the 90% lethal dose for each agent. Each EC50 measurement comprised 6 concentrations with 4 wells per concentration, and each dose response was performed twice for each protectant. EC50 concentrations, in μg/ml are reported as the average±pooled standard deviation for two independent experiments.

LX-1 SCLC cells [3] = system: LX-1 SCLC cells
Experimental: Chemotherapy cytotoxicity was assessed in cultured LX-1 SCLC cells (1×10^4 cells/well in 96 well plates) using the WST colorometric assay. […] Cells then received either no protectant (open bars), or sodium thiosulfate, 2000 μg/ml, added immediately (striped bars), 2 hours (black bars) or 4 hours (cross hatched bars) after chemotherapy. Data are expressed as the percentage of live cells compared to control samples (without chemotherapy) and each point represents the mean±standard deviation of 4 wells.
The thiol chemoprotectants were added either concurrently with chemotherapy or up to 8 hours after chemotherapy.

B.5 LX-1 cells [4] = test: cells; conditions: for EC50: Homo sapiens
Experimental: FIGS. 4A and 4B show cytoenhancement and chemoprotection. […] Cytotoxicity was assessed in cultured LX-1 SCLC cells, 1×10^4 cells per well in 96 well plates, using the WST colorometric assay. BSO cytoenhancement consisted of preincubation at 100 μM BSO for 18 hours. The chemoprotective agent was added immediately after chemotherapy. The experimental conditions were dose/responses for chemotherapy (carboplatin or etoposide phosphate) alone (m), BSO cytoenhancement ( ? ), N-acetylcysteine rescue, (1000 μg/ml N-acetylcysteine, n), or BSO cytoenhancement and N-acetylcysteine rescue (u). Data are expressed as the percentage of live cells compared to untreated control samples without chemotherapy and each point represents the mean±standard deviation of 4 wells.
The effects of BSO cytoenhancement and thiol chemoprotection on the dose/response relationships for cytotoxicity of the alkylating chemotherapeutics were evaluated in the B.5 LX-1 cells. BSO cytoenhancement consisted of preincubation with 100 μM BSO for about 18–24 hours prior to addition of chemotherapy, and rescue consisted of 1000–2000 μg/ml of thiol chemoprotectant added immediately after chemotherapy.
Cytoenhancement and chemoprotection against non-alkylating chemotherapeutic agents was also evaluated.
Half-maximal cytotoxic concentrations (EC50) are expressed as μg/ml. Each EC50 measurement comprised 6 concentrations with 4 wells per concentration, and each dose response was performed in triplicate for each chemotherapeutic agent. Data are reported as the mean±pooled standard deviation for three independent experiments. P values are shown for the reduction in EC50 by BSO treatment (*=P<0.05, **=P<0.01, ***=P<0.001).

cultured tumor cells = test: Paclitaxel cytotoxicity with BSO and NAC (WST); type: cell-based
GM294 human fibroblasts = test: Cytoenhancement and chemoprotection in fibroblasts, WST assay; type: cell-based
Experimental: Cytotoxicity was assessed in GM294 human fibroblasts, 1×10^4 cells per well in 96 well plates, using the WST colorometric assay. […] Data are expressed as the percentage of live cells compared to control samples (without chemotherapy) and each point represents the mean±s.d. of 4 wells.

[5] = system: Caspase-2 activity in B.5 LX-1 cells; test: Caspase-2 enzymatic activity (apoptosis); type: cell-based; conditions: for increase in caspase activity: variable between experiments
Experimental: (§1) FIGS. 7A and 7B show the effect of cytoenhancement and chemoprotection on apoptosis. […] Apoptosis was assessed in cultured LX-1 SCLC cells pretreated for 18 hours with or without 100 μM BSO. The experimental conditions were no addition (open bars), melphalan (10 μg/ml, striped bars) or melphalan (10 μg/ml) plus N-acetylcysteine (1000 μg/ml) (cross hatched bars) for 20 h prior to harvest. Caspase-2 activity is expressed as percentage activity in untreated control samples (mean±standard deviation, n=3). TUNEL staining is expressed as the percentage of cells showing positive staining.
(§2) Apoptosis was evaluated by measuring Caspase-2 enzymatic activity and by in situ TUNEL staining. […] The increase in caspase activity was variable between experiments and ranged from 50–100% at 7–8 h to 250–600% at 20–24 h after treatment with melphalan. […] In the experiment shown in FIG. 7B, TUNEL staining after melphalan treatment was positive in 29 of 3643 cells, compared to 7 of 4395 cells in the untreated control, and BSO treatment prior to melphalan increased the positive staining to 800 of 1699 cells. […] In both assays, activity was maximal with low doses of melphalan, or with a 1 hour pulse treatment with the doses used in the cytotoxicity assays.
Samples of the cells used in the caspase and TUNEL assays were also evaluated for membrane permeability by trypan blue exclusion.

B.5 LX-1 cells [6] = test: In situ TUNEL staining for DNA fragmentation; type: cell-based
Experimental: as §1, §2

[7] = read-out: Chemoprotective agent EC50, protection against carboplatin 200 μg/ml (about 90% lethal dose)
[8] = read-out: Chemoprotective agent EC50, protection against cisplatin 15 μg/ml (about 90% lethal dose)

O=S(O)(O)=S [STS, sodium thiosulfate]
bone marrow protection (rats): did not give consistent bone marrow protection
plasma half life ([1]; after a bolus injection): about 17 minutes
brain levels ([1]; i.v. administration): < 5 % of blood
EC50 (LX-1 SCLC cells [2]; [7]): 442 ± 203 mg/L
EC50 (LX-1 SCLC cells [2]; [8]): 86 ± 76 mg/L
EC50 (LX-1 SCLC cells [2]; read-out: Chemoprotective agent EC50, protection against melphalan 20 μg/ml (about 90% lethal dose)): 110 ± 78 mg/L
protection against melphalan cytotoxicity with delayed addition (LX-1 SCLC cells [3]; melphalan 20 μg/ml, protectant delayed (2 hours for STS)): chemoprotection was reduced
protection against platinum (carboplatin, cisplatin) cytotoxicity with delayed addition (LX-1 SCLC cells [3]; protectant delayed (up to 4 hours for STS)): still protective

CC(=O)O[C@H]1C(=O)[C@@]2(C)[C@H]([C@H](OC(=O)c3ccccc3)[C@]3(O)C[C@H](OC(=O)[C@H](O)[C@@H](NC(=O)c4ccccc4)c4ccccc4)C(C)=C1C3(C)C)[C@]1(OC(C)=O)CO[C@@H]1C[C@@H]2O [paclitaxel]
growth inhibitory dose (B.5 LX-1 cells [4]; not altered by BSO): approximately 10 nM
dose completely cytotoxic in vitro (cultured tumor cells; cells pretreated with BSO): ≥ 5 µM
live cells (WST fluorescence) (cultured tumor cells; paclitaxel dose 5 (unit not given)): 1.274 +/− .071
live cells (WST fluorescence) (cultured tumor cells; paclitaxel dose 20 (unit not given)): 0.771 +/− .056
concentration at which it begins to be cytotoxic (cultured tumor cells; without BSO): 20 µM
concentration at which it is completely toxic (cultured tumor cells; without BSO): 30 µM

COc1cccc2c1C(=O)c1c(O)c3c(c(O)c1C2=O)C[C@@](O)(C(=O)CO)C[C@@H]3O[C@H]1C[C@H](N)[C@H](O)[C@H](C)O1 [doxorubicin]
BSO enhancement or N-acetylcysteine protection of the agent's cytotoxicity (B.5 LX-1 cells [4]): no enhancement or protection

N.N.O=C([O-])C1(C(=O)[O-])CCC1.[Pt+2] [Carboplatin, carboplatin]
reduction of EC50 for cytotoxicity by BSO (B.5 LX-1 cells [4]; 100 μM BSO preincubation): 48%
Chemotherapy EC50 (cytotoxicity) (B.5 LX-1 cells [4]; Without BSO, mean ± pooled sd of three experiments): 103 ± 21 mg/L

CCOC(=O)CNC(=O)[C@H](CS)NC(=O)CC[C@H](N)C(=O)O [Glutathione ethyl ester]
relative effectiveness among the thiol agents tested (LX-1 SCLC cells [2]; on a μg/ml basis): least effective
Chemoprotective agent EC50 (LX-1 SCLC cells [2]; protection against carboplatin 200 μg/ml (about 90% lethal dose)): 995 ± 48 mg/L
Chemoprotective agent EC50 (LX-1 SCLC cells [2]; protection against cisplatin 15 μg/ml (about 90% lethal dose)): 530 ± 30 mg/L
Chemoprotective agent EC50 (LX-1 SCLC cells [2]; protection against melphalan 20 μg/ml (about 90% lethal dose)): 303 ± 124 mg/L

COc1cc([C@@H]2c3cc4c(cc3[C@@H](O[C@@H]3O[C@@H]5CO[C@@H](C)O[C@H]5[C@H](O)[C@H]3O)[C@H]3COC(=O)[C@H]23)OCO4)cc(OC)c1OP(=O)(O)O [etoposide phosphate]
BSO enhancement or N-acetylcysteine protection of the agent's cytotoxicity (B.5 LX-1 cells [4]): BSO did not increase the cytotoxicity of etoposide phosphate, nor did N-acetylcysteine decrease the cytotoxicity
effect of BSO and N-acetylcysteine on the agent's cytotoxicity (GM294 human fibroblasts): neither BSO cytoenhancement nor N-acetylcysteine chemoprotection affected the cytotoxicity

CN(Cc1cnc2nc(N)nc(N)c2n1)c1ccc(C(=O)N[C@@H](CCC(=O)O)C(=O)O)cc1 [methotrexate]
BSO enhancement or N-acetylcysteine protection of the agent's cytotoxicity (B.5 LX-1 cells [4]): no enhancement or protection

CCCCS(=N)(=O)CCC(N)C(=O)O (stereo not drawn) [BSO, buthionine sulfoximine]
effect on cisplatin- or carboplatin-induced caspase activity [5]: No significant amplification of caspase activity
effect on melphalan-induced Caspase-2 activity ([5]; BSO pretreatment, low melphalan concentrations): amplified
effect on toxicity of melphalan, cisplatin and carboplatin (GM294 human fibroblasts; 100 μM for 18 hours pretreatment): enhanced the toxicity of all three alkylators

CSCC[C@@H](N)C(=O)O [D-methionine]
EC50 (LX-1 SCLC cells [2]; [7]): 379 ± 123 mg/L (≈ 2540 µM)
EC50 (LX-1 SCLC cells [2]; [8]): 140 ± 41 mg/L (≈ 938 µM)
reduction of protection against cisplatin compared to simultaneous addition (LX-1 SCLC cells [3]; delayed for 2 hours after cisplatin): 41.2±10.2%
reduction of protection against cisplatin compared to simultaneous addition (LX-1 SCLC cells [3]; delayed to 4 hours after cisplatin): 66.1±4.5%
protection against cisplatin compared to simultaneous addition (LX-1 SCLC cells [3]; pretreatment for 30 min prior to cisplatin): did not increase the amount of protection

N[C@@H](Cc1ccc(N(CCCl)CCCl)cc1)C(=O)O [Melphalan, melphalan]
increase in caspase activity ([5]; 7–8 h after treatment): 50–100%
increase in caspase activity ([5]; 20–24 h after treatment): 250–600%
reduction of EC50 for cytotoxicity by BSO (B.5 LX-1 cells [4]): 53%
EC50 (B.5 LX-1 cells [4]; LX-1, read-out: Chemotherapy EC50 (cytotoxicity), + BSO (100 μM preincubation 18–24 hours), mean ± pooled sd of three experiments): 6.4 ± 0.6 mg/L
EC50 (B.5 LX-1 cells [4]; LX-1, read-out: Chemotherapy EC50 (cytotoxicity), Without BSO, mean ± pooled sd of three experiments): 13.8 ± 1.8 mg/L (≈ 45.2 µM)
TUNEL staining positive cells (B.5 LX-1 cells [6]; BSO treatment prior to melphalan): 800 of 1699
TUNEL staining positive cells (B.5 LX-1 cells [6]; melphalan treatment without BSO): 29 of 3643
